Here are results for 30 molecules from patent US9051310B2, “Nicotinamide derivative or salt thereof” (FUJIFILM Corporation, priority 2011, dated 2015).

Some results are limits rather than exact numbers.

This experiment concerns the target T1, glutathione S-transferase (GST)-linked full-length human Syk protein (Homo sapiens, UniProt P43405).
T1 construct: glutathione S-transferase (GST)-linked full-length human Syk protein; purchased Carna Biosciences; host or cells: Baculovirus expression system
In words: Syk enzyme assay. The class given is biochemical. The settings on record: 0.83 nM Syk, time-resolved fluorescence; read-out: IC50 of Syk-inhibitory activity. A digest of the protocol:
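Phosphotyrosine on a biotin-peptide substrate (0.5 μM) was read by time-resolved fluorescence at 615 and 665 nm with Eu-anti-pTyr antibody and APC-streptavidin after 1 h EDTA stop.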
Broadly, the IC50 is the concentration that inhibits the measured activity by half. With `CC(C)Oc1ccc(Nc2nc(N[C@@H]3CCCC[C@@H]3N)c(F)cc2C(N)=O)cc1` [Example 2-449, 6-(((1R,2S)-2-aminocyclohexyl)amino)-5-fluoro-2-((4-isopropoxyphenyl)amino) nicotinamide], the IC50 is below 10 nM.

With `CC(C)Oc1cccc(Nc2nc(N[C@@H]3CCCC[C@@H]3N)c(F)cc2C(N)=O)c1` [Example 2-446, 6-(((1R,2S)-2-aminocyclohexyl)amino)-5-fluoro-2-((3-isopropoxyphenyl)amino) nicotinamide], the IC50 is below 10 nM.

Take `CC[C@H](N)[C@@H](CC)Nc1nc(Nc2cnc3c(c2)c(OC)nn3C)c(C(N)=O)cc1F` [Example 2-258, 6-(((3R,4S)-4-aminohexan-3-yl)amino)-5-fluoro-2-((3-methoxy-1-methyl-1H-pyrazolo[3,4-b]pyridin-5-yl)amino)nicotinamide]: the IC50 lay in the range of 10 to 50 nM.

For the molecule `C[C@H](N)[C@H](Nc1nc(Nc2cnc(N3CCOCC3)c(F)c2)c(C(N)=O)cc1F)c1ccccc1` [Example 2-314, 6-(((1R,2S)-2-amino-1-phenylpropyl)amino)-5-fluoro-2-((5-fluoro-6-morpholinopyridin-3-yl)amino)nicotinamide], the IC50 is below 10 nM.

As for `CC(C)[C@@H](Nc1nc(Nc2cncc(C3CC3)c2)c(C(N)=O)cc1F)[C@H](C)N` [Example 2-111, 6-(((2S,3R)-2-amino-4-methylpentan-3-yl)amino)-2-((5-cyclopropylpyridin-3-yl)amino)-5-fluoronicotinamide], the IC50 lay in the range of 10 to 50 nM.

On to `CCn1ncc2cc(Nc3nc(N[C@@H](CN)Cc4ccccc4)c(F)cc3C(N)=O)ccc21` [Example 2-363, (R)-6-((1-amino-3-phenylpropan-2-yl)amino)-2-((1-ethyl-1H-indazol-5-yl)amino)-5-fluoronicotinamide], for which the IC50 fell in the range of 10 to 50 nM.

Regarding `CC[C@H](N)[C@H](Nc1nc(Nc2cnc(C)c(F)c2)c(C(N)=O)cc1F)C1CC1` [Example 2-382, 6-(((1R,2S)-2-amino-1-cyclopropylbutyl)amino)-5-fluoro-2-((5-fluoro-6-methylpyridin-3-yl)amino)nicotinamide], the IC50 is 10 to 50 nM.

For `COc1nn(C)c2ncc(Nc3nc(N[C@@H](CN)CC(C)C)c(F)cc3C(N)=O)cc12` [Example 2-250, (R)-6-((1-amino-4-methylpentan-2-yl)amino)-5-fluoro-2-((3-methoxy-1-methyl-1H-pyrazolo[3,4-b]pyridin-5-yl)amino)nicotinamide], the IC50 was below 10 nM.

As for `CC[C@H](N)[C@H](Nc1nc(Nc2cc(OC)cc(OC)c2)c(C(N)=O)cc1F)C1CC1` [Example 2-361, 6-(((1R,2S)-2-amino-1-cyclopropylbutyl)amino)-2-((3,5-dimethoxyphenyl)amino)-5-fluoronicotinamide], the IC50 is 10 to 50 nM.

As for `CC(C)C[C@H](CN)Nc1nc(Nc2cncc3c2cnn3CC(F)F)c(C(N)=O)cc1F` [Example 2-395, (R)-6-((1-amino-4-methylpentan-2-yl)amino)-2-((1-(2,2-difluoroethyl)-1H-pyrazolo[3,4-c]pyridin-4-yl)amino)-5-fluoronicotinamide], the IC50 is below 10 nM.

Consider `CNc1n[nH]c2ccc(Nc3nc(N[C@H](C4CC4)[C@H](C)N)c(F)cc3C(N)=O)cc12` [Example 2-490, 6-(((1R,2S)-2-amino-1-cyclopropylpropyl)amino)-5-fluoro-2-((3-(methylamino)-1H-indazol-5-yl)amino)nicotinamide], for which the IC50 was 10 to 50 nM.

As to `CCCC[C@@H](Nc1nc(Nc2cnc3c(c2)c(C)nn3C)c(C(N)=O)cc1F)[C@H](C)N` [Example 2-244, 6-(((2S,3R)-2-aminoheptan-3-yl)amino)-2-((1,3-dimethyl-1H-pyrazolo[3,4-b]pyridin-5-yl)amino)-5-fluoronicotinamide], the IC50 is 10 to 50 nM.

Regarding `COc1ncc(Nc2nc(N[C@H](C3CC3)[C@H](C)N)c(F)cc2C(N)=O)c2cnn(C)c12` [Example 2-408, 6-(((1R,2S)-2-amino-1-cyclopropylpropyl)amino)-5-fluoro-2-((7-methoxy-1-methyl-1H-pyrazolo[3,4-c]pyridin-4-yl)amino)nicotinamide], the IC50 lay within 50 to 100 nM.

For `COc1ncc(Nc2nc(N[C@H](C3CCC3)[C@H](C)N)c(F)cc2C(N)=O)cc1F` [Example 2-63, 6-(((1R,2S)-2-amino-1-cyclobutylpropyl)amino)-5-fluoro-2-((5-fluoro-6-methoxypyridin-3-yl)amino)nicotinamide.], the IC50 is 10 to 50 nM.

In the case of `CC[C@@H](Nc1nc(Nc2cnc3c(c2)c(C)nn3C)c(C(N)=O)cc1F)[C@H](C)N` [Example 2-241, 6-(((2S,3R)-2-aminopentan-3-yl)amino)-2-((1,3-dimethyl-1H-pyrazolo[3,4-b]pyridin-5-yl)amino)-5-fluoronicotinamide], the IC50 lay within 10 to 50 nM.

As to `CC[C@H](N)[C@@H](C)Nc1nc(Nc2ccc3c(c2)c(N(C)CCOC)nn3C)c(C(N)=O)cc1F` [Example 2-461, 6-(((2R,3S)-3-aminopentan-2-yl)amino)-5-fluoro-2-((3-((2-methoxyethyl)(methyl)amino)-1-methyl-1H-indazol-5-yl)amino)nicotinamide], the IC50 is 10 to 50 nM.

With `CN(C)c1nn(C)c2ncc(Nc3nc(N[C@@H]4CCCC[C@@H]4N)c(F)cc3C(N)=O)cc12` [Example 2-286, 6-(((1R,2S)-2-aminocyclohexyl)amino)-2-((3-(dimethylamino)-1-methyl-1H-pyrazolo[3,4-b]pyridin-5-yl)amino)-5-fluoronicotinamide], the IC50 is 10 to 50 nM.

As to `C[C@H](N)[C@H](Nc1nc(Nc2cncc(-n3cc(Cl)cn3)c2)c(C(N)=O)cc1F)C1CC1` [Example 2-520, 6-(((1R,2S)-2-amino-1-cyclopropylpropyl)amino)-2-((5-(4-chloro-1H-pyrazol-1-yl)pyridin-3-yl)amino)-5-fluoronicotinamide], the IC50 is below 10 nM.

For the molecule `COCCn1ncc2c(Nc3nc(N[C@H](CC(C)C)[C@H](C)N)c(F)cc3C(N)=O)cncc21` [Example 2-390, 6-(((2S,3R)-2-amino-5-methylhexan-3-yl)amino)-5-fluoro-2-((1-(2-methoxyethyl)-1H-pyrazolo[3,4-c]pyridin-4-yl)amino)nicotinamide], the IC50 was below 10 nM.

Regarding `NC(=O)c1cc(F)c(N[C@@H]2CCCC[C@@H]2N)nc1Nc1cccc(OC(F)(F)F)c1` [Example 2-444, 6-(((1R,2S)-2-aminocyclohexyl)amino)-5-fluoro-2-((3-(trifluoromethoxy)phenyl)amino)nicotinamide], the IC50 was below 10 nM.

Take `C[C@H](N)[C@H](Nc1nc(Nc2ccc3c(c2)c(N(C)C)nn3C)c(C(N)=O)cc1F)c1cccs1` [Example 2-510, 6-(((1S,2S)-2-amino-1-(thiophen-2-yl)propyl)amino)-2-((3-(dimethylamino)-1-methyl-1H-indazol-5-yl)amino)-5-fluoronicotinamide]: the IC50 was below 10 nM.

For the molecule `C[C@H](N)[C@H](Nc1nc(Nc2cnc(N3CCOCC3)c(F)c2)c(C(N)=O)cc1F)c1cccc(F)c1` [Example 2-451, 6-(((1R,2S)-2-amino-1-(3-fluorophenyl)propyl)amino)-5-fluoro-2-((5-fluoro-6-morpholinopyridin-3-yl)amino)nicotinamide], the IC50 is below 10 nM.

As to `CCCC[C@@H](Nc1nc(Nc2cccc3c2cnn3CCOC)c(C(N)=O)cc1F)[C@H](C)N` [Example 2-307, 6-(((2S,3R)-2-aminoheptan-3-yl)amino)-5-fluoro-2-((1-(2-methoxyethyl)-1H-indazol-4-yl)amino)nicotinamide], the IC50 is below 10 nM.

For the molecule `CC[C@H](N)[C@H](Nc1nc(Nc2cccnc2)c(C(N)=O)cc1F)C1CC1` [Example 2-485, 6-(((1R,2S)-2-amino-1-cyclopropylbutyl)amino)-5-fluoro-2-(pyridin-3-ylamino)nicotinamide], the IC50 fell in the range of 10 to 50 nM.

With `Cc1cnn(-c2cncc(Nc3nc(N[C@@H]4CCOC[C@@H]4N)c(F)cc3C(N)=O)c2)c1` [Example 2-526, 6-(((3R,4R)-3-aminotetrahydro-2H-pyran-4-yl)amino)-5-fluoro-2-((5-(4-methyl-1H-pyrazol-1-yl)pyridin-3-yl)amino)nicotinamide], the IC50 is below 10 nM.

Consider `Cc1ncc(Nc2nc(N[C@@H]3CC[C@@H](O)C[C@@H]3N)c(F)cc2C(N)=O)cc1-n1nccn1` (racemic) [Example 2-531, Mixture of 6-((2-amino-4-hydroxycyclohexyl)amino)-5-fluoro-2-((6-methyl-5-(2H-1,2,3-triazol-2-yl)pyridin-3-yl)amino)nicotinamide (1R,2S,4R), (1S,2R,4S)], for which the IC50 was in the range of 10 to 50 nM.

Regarding `CC[C@H](N)[C@H](Nc1nc(Nc2cncc(F)c2)c(C(N)=O)cc1F)C1CC1` [Example 2-486, 6-(((1R,2S)-2-amino-1-cyclopropylbutyl)amino)-5-fluoro-2-((5-fluoropyridin-3-yl)amino)nicotinamide], the IC50 fell in the range of 10 to 50 nM.

Consider `C[C@H](N)[C@H](Nc1nc(Nc2ccc3c(c2)c(N(C)C)nn3C)c(C(N)=O)cc1F)c1ccc(F)c(F)c1` [Example 2-553, 6-(((1R,2S)-2-amino-1-(3,4-difluorophenyl)propyl)amino)-2-((3-(dimethylamino)-1-methyl-1H-indazol-5-yl)amino)-5-fluoronicotinamide], for which the IC50 is below 10 nM.

With `CC[C@H](N)[C@@H](CC)Nc1nc(Nc2ccc3c(c2)c(N(C)C)nn3C)c(C(N)=O)cc1F` [Example 2-92, 6-(((3R,4S)-4-aminohexan-3-yl)amino) 2-((3-(dimethylamino)-1-methyl-1H-indazol-5-yl)amino)-5-fluoronicotinamide], the concentration for half-maximal inhibition (IC50) fell in the range of 10 to 50 nM.

Regarding `CC[C@H](N)[C@@H](C)Nc1nc(Nc2ccc3c(c2)c(NC)nn3C)c(C(N)=O)cc1F` [Example 2-499, 6-(((2R,3S)-3-aminopentan-2-yl)amino)-5-fluoro-2-((1-methyl-3-(methylamino)-1H-indazol-5-yl)amino)nicotinamide], the IC50 lay in the range of 10 to 50 nM.
